From PubChem BioAssay AID743302 (Broad Institute, 2014) come the findings set out here.

Values joined by “and” are separate entries in the source; they are usually repeats but may differ in a detail not shown here. Identical values can stand only once. Active and inactive are the calls of the source.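 How the source made its calls: active means fitted curve rises past activity 40 at a concentration no higher than the top valid tested dose; inconclusive means flat curve at 30 to 70 percent, or poor fit; inactive means the rest, including activity in the opposite direction.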

Assay [1] has as its system C. neoformans lysis, adenylate kinase release luminescence, 4 h. In words: fungal lysis via adenylate kinase leakage – AK release luminescence, dry powder, set 3, dose response (AID 743302).
Assay in assay [2]: as above
To be noted: C. neoformans lysis, adenylate kinase release luminescence, 4 h; at 15 µM (top of the series).

As for `Fc1cccc2c1[nH]c(=S)n2CCOc1ccccc1`, the AC40 in assay [1] was 3180 nM and 2700 nM and 1570 nM.

As to `Cc1ccc(C)c(OCCn2c(=S)[nH]c3ccccc32)c1`, in assay [1], the AC40 is 1820 nM.

Regarding `Cc1ccc(C(C)C)c(OCCn2c(CO)nc3ccccc32)c1`, in assay [1], the AC40 is 14000 nM.

As to `Cc1ccc(C(C)C)c(OCCn2c(=S)[nH]c3cccc(F)c32)c1`, the AC40 in assay [1] is > 15000 nM (inactive).

Consider `Cc1cccc(OCCn2c(=S)[nH]c3ccc(C(F)(F)F)cc32)c1`, for which, in assay [1], the AC40 is 14300 nM.

On to `CC(C)c1ccc(OCCn2c(=S)[nH]c3ccccc32)cc1`, for which the AC40 in assay [1] is 172 nM.

Turning to `Fc1ccccc1OCCn1c(=S)[nH]c2ccccc21`, the AC40 in assay [1] was 8740 nM.

For `O=c1[nH]c2ccccc2n1CCOc1ccccc1`, the AC40 in assay [1] is > 15000 nM (inactive).

As to `CCOc1ccc(OCCn2c(=S)[nH]c3ccccc32)cc1`, the AC40 in assay [1] is 1380 nM.

Consider `CC(C)(C)c1ccc(OCCn2c(=S)[nH]c3ccccc32)cc1`, for which the cell lysis activity in assay [2] was 4.17% (inactive).

For `Cc1ccc(C(C)C)c(OCCn2c(=S)[nH]c3ccc(F)cc32)c1`, the AC40 in assay [1] is 1060 nM.

Take `Cc1ccc(OCCn2c(=S)[nH]c3ccccc32)c(C)c1`: in assay [1], the AC40 is > 15000 nM (inactive).

Consider `Cc1ccc(C(C)C)c(OCCn2c(=S)[nH]c3cc(F)ccc32)c1`, for which the AC40 in assay [1] was 5510 nM.

For the molecule `COc1cccc(OCCn2c(=S)[nH]c3ccccc32)c1`, the AC40 in assay [1] was > 15000 nM (inactive).

On to `Cc1ccc(C(C)C)c(OCCn2c(=S)[nH]c3cccc(Cl)c32)c1`, for which the AC40 in assay [1] was > 15000 nM (inactive).

For `CC(C)(C)c1ccccc1OCCn1c(=S)[nH]c2ccccc21`, the AC40 in assay [1] is 3230 nM.

Turning to `c1ccc(OCCn2cnc3ccccc32)cc1`, in assay [1], the AC40 is > 15000 nM (inactive).

For the molecule `Cc1ccc(OCCn2c(=S)[nH]c3ccccc32)c(C(C)C)c1`, the AC40 in assay [1] was 9540 nM and 1410 nM.

On to `Cc1ccc(C(C)C)c(OCCn2c(=S)[nH]c3cccc(C)c32)c1`, for which the AC40 in assay [1] was 8260 nM.

Regarding `S=c1[nH]c2ccccc2n1CCOc1ccccc1Cl`, in assay [1], the AC40 is 902 nM.

Take `Fc1ccc2[nH]c(=S)n(CCOc3ccccc3)c2c1`: the AC40 in assay [1] is > 15000 nM (inactive).

As for `S=c1[nH]c2cccc(Cl)c2n1CCOc1ccccc1`, the AC40 in assay [1] is 3600 nM and 619 nM.

Turning to `Cc1ccccc1OCCn1c(=S)[nH]c2ccccc21`, in assay [1], the AC40 is 1870 nM.

`COc1ccccc1OCCn1c(=S)[nH]c2ccccc21`: the cell lysis activity in assay [2] is -4.68% (inactive).

For the molecule `Cc1ccc(C(C)C)c(OCCn2c(=S)[nH]c3c(F)cccc32)c1`, the cell lysis activity in assay [2] was -28.6% (inactive).

For `Cc1ccc(OCCn2c(C)nc3ccccc32)cc1`, the AC40 in assay [1] was > 15000 nM (inactive).

Turning to `Cc1ccc(C(C)C)c(OCCn2c(=S)[nH]c3ccc(Cl)cc32)c1`, the AC40 in assay [1] was > 15000 nM (inactive).

As for `Cc1ccc(OCCn2c(SCCO)nc3ccccc32)c(C(C)C)c1`, the AC40 in assay [1] is > 15000 nM (inactive).

As for `Fc1cccc(OCCn2c(=S)[nH]c3ccccc32)c1`, the AC40 in assay [1] is 3270 nM.

As for `COCc1nc2ccccc2n1CCOc1ccc(C(C)(C)C)cc1`, the AC40 in assay [1] was 6790 nM.

For `Cc1cccc(OCCn2c(=S)[nH]c3ccccc32)c1`, the AC40 in assay [1] is 910 nM.

Take `CC(C)c1ccccc1NCCn1c(=S)[nH]c2ccccc21`: in assay [1], the AC40 is 5860 nM.

Consider `S=c1[nH]c2cc(Cl)ccc2n1CCOc1ccccc1`, for which the AC40 in assay [1] was 358 nM.

For `CC(C)c1ccccc1OCCn1c(=S)[nH]c2ccccc21`, in assay [1], the AC40 is 1110 nM.

With `CC(C)(C)c1ccc(OCCn2cnc3ccccc32)cc1`, the AC40 in assay [1] is 1950 nM.

For `Cc1ccc(C(C)C)c(OCCn2c(=S)[nH]c3ccccc32)c1`, the AC40 in assay [1] was 3570 nM and 2720 nM.

On to `Cc1ccc(OCCn2c(=S)[nH]c3ccccc32)cc1`, for which the AC40 in assay [1] was 1140 nM.

Consider `Cc1ccc(C(C)C)c(OCCn2c(=S)[nH]c3c(C)cccc32)c1`, for which, in assay [1], the AC40 was 1820 nM.

Take `Fc1ccc2c(c1)[nH]c(=S)n2CCOc1ccccc1`: the AC40 in assay [1] was 3060 nM and 1950 nM.

Consider `Cc1cccc(OCCn2c(=S)[nH]c3c(F)cccc32)c1`, for which, in assay [1], the AC40 was 726 nM and 1300 nM.

Regarding `CSc1nc2ccccc2n1CCOc1cc(C)ccc1C(C)C`, in assay [2], the cell lysis activity is 3.47% (inactive).

As to `Fc1ccc(OCCn2c(=S)[nH]c3ccccc32)cc1`, the cell lysis activity in assay [2] is -54.7% (inactive).

`S=c1[nH]c2ccccc2n1CCOc1ccc(Cl)cc1`: the AC40 in assay [1] is 1190 nM.

`Cc1cccc2[nH]c(=S)n(CCOc3ccccc3)c12`: the AC40 in assay [1] was 211 nM.

As to `Cc1cccc(OCCn2c(=S)[nH]c3ccccc32)c1C`, the AC40 in assay [1] was > 15000 nM (inactive).

With `Cc1ccc(OCCn2cnc3ccccc32)c(C(C)C)c1`, the AC40 in assay [1] is 3820 nM.

Take `Cc1ccc(C(C)C)c(OCCn2c(=S)[nH]c3c(Cl)cccc32)c1`: in assay [1], the AC40 is > 15000 nM (inactive).

In the case of `Cc1ccc(OCCn2cnc3ccccc32)cc1`, the AC40 in assay [1] is > 15000 nM (inactive).

Turning to `Cc1cccc(OCCn2c(=S)[nH]c3cc(F)ccc32)c1`, the AC40 in assay [1] is 581 nM and 1820 nM.

`S=c1[nH]c2ccccc2n1CCOc1ccccc1`: in assay [2], the cell lysis activity was 33.9% (inactive).

On to `COc1ccc(OCCn2c(=S)[nH]c3ccccc32)cc1`, for which, in assay [1], the AC40 was 13700 nM.

For the molecule `Cc1ccc2c(c1)[nH]c(=S)n2CCOc1ccccc1`, the AC40 in assay [1] is 4240 nM and 940 nM.

In the case of `Cc1cccc(OCCn2c(=S)[nH]c3cc(C(F)(F)F)ccc32)c1`, the AC40 in assay [1] was > 15000 nM (inactive).
